Results: publication PMC7178511, “Antimicrobial Activity and DNA/BSA Binding Affinity of Polynuclear Silver(I) Complexes with 1,2-Bis(4-pyridyl)ethane/ethene as Bridging Ligands” (Bioinorganic Chemistry and Applications, 2020)
Converted amounts (≈) assume the structure as drawn.

Tests used:
[1] = system: Enterococcus faecalis ATCC 29212; experiment: Broth microdilution MIC, E. faecalis; assay type: cell-based; conditions: Enterococcus faecalis, ATCC29212; E. faecalis ATCC 29212; Luria-Bertani broth, 24 h, 37°C; read-out: MIC
Protocol: (§1) Minimal inhibitory concentration (MIC) values against Pseudomonas aeruginosa PA01, Staphylococcus aureus ATCC 43300, Salmonella enteritidis ATCC 13075, Salmonella pullorum ATCC 13036, Escherichia coli NCTC 9001, Listeria monocytogenes NCTC 11994, and Enterococcus faecalis ATCC 29212 were determined in Luria-Bertani broth (10.0 g/L tryptone, 10.0 g/L NaCl, 5.0 g/L yeast extract, pH 7.2) in accordance with the standard broth microdilution assay for bacteria that grow aerobically, as recommended by the CLSI (Clinical and Laboratory Standards Institute, Methods for Dilution Antimicrobial Susceptibility Tests for Bacteria That Grow Aerobically; Approved Standard—Tenth Edition M07-A10. CLSI). The highest tested concentration was 500 μg/mL, and the inocula were 1^·10^6 cfu/mL.

[2] = system: Salmonella pullorum ATCC 13036; experiment: Broth microdilution MIC, S. pullorum; assay type: cell-based; conditions: Salmonella enterica; S. pullorum ATCC 13036; Luria-Bertani broth, 24 h, 37°C; read-out: MIC
Protocol: as §1

C. glabrata ATCC 2001 = experiment: Broth microdilution MIC, C. glabrata; assay type: cell-based, Candida glabrata; conditions: Nakaseomyces glabratus, ATCC2001; C. glabrata ATCC 2001; RPMI 1640 with 2% glucose; read-out: MIC
Protocol: (§2) Stock solutions of bpa, bpe, and silver(I) complexes 1–3 were prepared fresh in DMSO (50 mg/mL) and kept at 4°C prior to use. Susceptibility testing of Candida spp. (C. albicans ATCC 10231, C. krusei ATCC 6258, C. parapsilosis ATCC 22019, and C. glabrata ATCC 2001) was performed according to CLSI broth microdilution guidelines (Clinical and Laboratory Standards Institute, Reference Method for Broth Dilution Antifungal Susceptibility Testing of Yeasts—Third Edition: Approved Standard M27-A3; Clinical and Laboratory Standards Institute, Reference Method for Broth Dilution Antifungal Susceptibility Testing of Yeasts: Fourth Informational Supplement M27-S4), in RPMI 1640 medium (Roswell Park Memorial Institute medium) containing 2% glucose (w/v). The highest tested concentration was 500 μg/mL, and the inocula were 1^·\10^5 colony forming units (cfu)/mL.

[3] = system: investigated bacterial strains; experiment: Broth microdilution MIC, panel of bacterial strains; assay type: cell-based
Protocol: as §1

[4] = system: Listeria monocytogenes NCTC 11994; experiment: Broth microdilution MIC, L. monocytogenes; assay type: cell-based; conditions: Listeria monocytogenes, NCTC11994; L. monocytogenes NCTC 11994; Luria-Bertani broth, 24 h, 37°C; read-out: MIC
Protocol: as §1

[5] = system: Escherichia coli NCTC 9001; experiment: Broth microdilution MIC, E. coli; assay type: cell-based; conditions: Escherichia coli, NCTC9001; E. coli NCTC 9001; Luria-Bertani broth, 24 h, 37°C; read-out: MIC
Protocol: as §1

[6] = system: Pseudomonas aeruginosa PAO1; experiment: Broth microdilution MIC, P. aeruginosa; assay type: cell-based; conditions: Pseudomonas aeruginosa; P. aeruginosa PAO1; Luria-Bertani broth, 24 h, 37°C; read-out: MIC
Protocol: as §1

[7] = system: Staphylococcus aureus ATCC 43300; experiment: Broth microdilution MIC, S. aureus; assay type: cell-based; conditions: Staphylococcus aureus, ATCC43300; S. aureus ATCC 43300; Luria-Bertani broth, 24 h, 37°C; read-out: MIC
Protocol: as §1

C. albicans ATCC 10231 = experiment: Broth microdilution MIC, C. albicans; assay type: cell-based, Candida albicans; conditions: Candida albicans, ATCC10231; C. albicans ATCC 10231; RPMI 1640 with 2% glucose; read-out: MIC
Protocol: as §2

[8] = system: C. parapsilosis ATCC 22019; experiment: Broth microdilution MIC, C. parapsilosis; assay type: cell-based, Candida parapsilosis; conditions: Lodderomyces parapsilosis, ATCC22019; C. parapsilosis ATCC 22019; RPMI 1640 with 2% glucose; read-out: MIC
Protocol: as §2

[9] = MTT assay on a human fibroblast cell line; assay type: cell-based; conditions: human, MRC-5 human lung fibroblast cells, MRC-5, MTT, read-out: IC50 (cytotoxic effect on MRC-5 cells)
Protocol: Antiproliferative activity was tested by 3-(4,5-dimethylthiazol-2-yl)-2,5-diphenyltetrazolium bromide (MTT) assay on a human lung fibroblast cell line (MRC-5; ATCC collection). Pregrown (24 h) cell monolayers were incubated in the media containing the tested compounds at concentrations ranging from 5 to 500 μg/mL and the cell viability was measured after 48 h. RPMI 1640 medium supplemented with 100 μg/mL streptomycin, 100 U/mL penicillin, and 10% (v/v) FBS (all from Sigma, Munich, Germany) was used for the cultivation of MRC-5 cell line. Cells were maintained as a monolayer (1^·10^4 cells per well) in RPMI 1640 and grown in a humidified atmosphere of 95% air and 5% CO2 at 37°C. The extent of MTT reduction was measured spectrophotometrically at 540 nm using Tecan Infinite 200 Pro multiplate reader (Tecan Group Ltd, Männedorf, Switzerland), and the cell survival was expressed as a percentage of the control (untreated cells). Cytotoxicity was expressed as the concentration of the compound inhibiting cell growth by 50% (IC50).

C. krusei ATCC 6258 = experiment: Broth microdilution MIC, C. krusei; assay type: cell-based, Candida krusei; conditions: Pichia kudriavzevii, ATCC6258; C. krusei ATCC 6258; RPMI 1640 with 2% glucose; read-out: MIC
Protocol: as §2

[10] = system: Salmonella enteritidis ATCC 13075; experiment: Broth microdilution MIC, S. enteritidis; assay type: cell-based; conditions: Salmonella enterica; S. enteritidis ATCC 13075; Luria-Bertani broth, 24 h, 37°C; read-out: MIC
Protocol: as §1

calf thymus DNA (ctDNA) = conditions: proven DNA intercalator; cited from earlier work

Compound | MIC [1] | MIC [2] | MIC (C. glabrata ATCC 2001) | MIC / antibacterial activity [3] | MIC [4] | MIC [5] | MIC [6] | MIC [7] | MIC (C. albicans ATCC 10231) | MIC [8] | IC50 at 48 h [9] | MIC (C. krusei ATCC 6258) | MIC [10] | Hypochromism (calf thymus DNA (ctDNA))
C(=Cc1ccncc1)c1ccncc1 [bpe, 1,2-bis(4-pyridyl)ethene, reference compound] | > 500 µg/mL | > 500 µg/mL | 100 µg/mL (≈ 549 µM) | not significant | 100 µg/mL (≈ 549 µM) | 250 µg/mL (≈ 1370 µM) | 500 µg/mL (≈ 2740 µM) | > 500 µg/mL | 200 µg/mL (≈ 1100 µM) | 125 µg/mL (≈ 686 µM) | 220 µg/mL (≈ 1210 µM) | 200 µg/mL (≈ 1100 µM) | > 500 µg/mL | 
C[n+]1c2ccccc2c(-c2c3ccccc3[n+](C)c3ccccc23)c2ccccc21 [lucigenin] |  |  |  |  |  |  |  |  |  |  |  |  |  | 50%
